According to article doi:10.1101/2024.09.20.614104v2, “SATAY-Based Chemogenomic Screening uncovers Antifungal Resistance Mechanisms and Key Determinants of ATI-2307 and Chitosan Sensitivity” (biorxiv, 2024):

Tests used:
[1] = target: T1, Hol1 (Saccharomyces cerevisiae, UniProt P53389); assay: LC-MS quantification of cellular uptake, wild-type versus hol1 deletion cells; format: cell-based; conditions: SC 2% ethanol, 30 °C, not an affinity constant
T1 construct: full-length native plasma membrane polyamine transporter in wild-type yeast; hol1 deletion strain as control

[2] = target: T2, CaHOL1 (Candida albicans, UniProt Q5AP74); assay: LC-MS quantification of cellular uptake, hol1 deletion cells with or without CaHOL1 plasmid; format: cell-based; conditions: 0.003 μg/mL ATI-2307, 2 h, SC -URA 2% ethanol, 30 °C
T2 construct: gene HOL1; full-length CDS PCR-amplified from genomic DNA, expressed from plasmid pBK994 in S. cerevisiae hol1 deletion strain
T2 sequence (Q5AP74 entry or part of it): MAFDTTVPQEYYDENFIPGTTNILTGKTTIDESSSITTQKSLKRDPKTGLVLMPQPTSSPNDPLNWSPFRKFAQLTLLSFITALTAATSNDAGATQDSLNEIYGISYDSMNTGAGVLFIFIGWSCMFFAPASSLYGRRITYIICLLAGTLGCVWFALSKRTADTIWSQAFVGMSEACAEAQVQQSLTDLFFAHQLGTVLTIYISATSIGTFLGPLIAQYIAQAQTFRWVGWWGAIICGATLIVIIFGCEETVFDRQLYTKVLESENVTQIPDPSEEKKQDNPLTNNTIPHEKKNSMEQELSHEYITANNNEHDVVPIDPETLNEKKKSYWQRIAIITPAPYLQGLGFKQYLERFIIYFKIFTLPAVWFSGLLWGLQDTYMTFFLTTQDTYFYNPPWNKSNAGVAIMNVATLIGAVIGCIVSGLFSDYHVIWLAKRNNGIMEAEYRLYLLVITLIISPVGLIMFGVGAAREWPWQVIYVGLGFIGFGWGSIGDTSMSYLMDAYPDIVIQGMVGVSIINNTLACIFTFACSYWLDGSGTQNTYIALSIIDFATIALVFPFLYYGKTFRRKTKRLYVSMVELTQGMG

T1 sequence (P53389 whole entry): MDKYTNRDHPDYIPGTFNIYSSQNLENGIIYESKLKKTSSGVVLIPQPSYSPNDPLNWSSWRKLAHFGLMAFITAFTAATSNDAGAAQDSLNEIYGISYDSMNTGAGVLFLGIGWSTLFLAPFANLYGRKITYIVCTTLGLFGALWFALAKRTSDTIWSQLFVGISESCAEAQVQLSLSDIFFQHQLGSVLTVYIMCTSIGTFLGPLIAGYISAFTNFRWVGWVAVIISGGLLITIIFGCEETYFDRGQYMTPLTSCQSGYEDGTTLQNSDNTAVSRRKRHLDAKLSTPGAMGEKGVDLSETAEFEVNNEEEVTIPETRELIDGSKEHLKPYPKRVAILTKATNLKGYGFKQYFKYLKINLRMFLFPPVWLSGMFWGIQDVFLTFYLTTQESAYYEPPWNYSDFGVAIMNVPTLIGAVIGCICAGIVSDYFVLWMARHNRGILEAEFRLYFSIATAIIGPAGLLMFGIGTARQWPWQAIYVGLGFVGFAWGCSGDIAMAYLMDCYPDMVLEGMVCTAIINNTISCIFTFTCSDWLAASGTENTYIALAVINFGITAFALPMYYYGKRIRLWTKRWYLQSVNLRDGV

Structure (SMILES)	uptake, μg per gram of WT pellet ([1]; 1 μg/mL Iminoctadine, 2 h) [μg/g pellet]	uptake, μg per gram of WT pellet ([1]; 0.003 μg/mL ATI-2307, 2 h) [μg/g pellet]	LC-MS quantification of cellular uptake, hol1 deletion cells with or without CaH [2]
N=C(N)NCCCCCCCCNCCCCCCCCNC(=N)N [Iminoctadine]	52.5	–	–
N=C(N)c1ccc(OCCCC2CCN(CCCOc3ccc(C(=N)N)cc3)CC2)cc1 [ATI-2307]	–	0.1	heterologous expression of C. albicans HOL1 (CaHOL1) partially restored ATI-2307 uptake
